# Assay results taken from ChEMBL document CHEMBL3392978 (Eur J Med Chem, 2015).
# Assays:
# HepG2 [1] = assay: Growth inhibition of human HepG2 cells at 10 uM after 72 hrs by MTT assay; type: functional; settings: HepG2, 72 h, read-out: GI
# MDA-MB-453 = assay: Growth inhibition of human MDA-MB-453 cells at 10 uM after 72 hrs by MTT assay; type: functional; settings: MDA-MB-453, 72 h, read-out: GI
# SW480 = assay: Growth inhibition of human SW480 cells at 10 uM after 72 hrs by MTT assay; type: functional; settings: SW480, 72 h, read-out: GI
# A-375 [2] = assay: Growth inhibition of human A375 cells at 10 uM after 72 hrs by MTT assay; type: functional; settings: A-375, 72 h, read-out: GI
# NCI-H522 [3] = assay: Growth inhibition of human NCI-H522 cells at 10 uM after 72 hrs by MTT assay; type: functional; settings: NCI-H522, 72 h, read-out: GI
# MCF7 = assay: Growth inhibition of human MCF7 cells at 10 uM after 72 hrs by MTT assay; type: functional; settings: MCF7, 72 h, read-out: GI
# HepG2 [4] = assay: Cytotoxicity against human HepG2 cells assessed as reduction in cell viability after 72 hrs by MTT assay; type: functional, cell-based; settings: HepG2, 72 h
# A-375 [5] = assay: Cytotoxicity against human A375 cells assessed as reduction in cell viability after 72 hrs by MTT assay; type: functional, cell-based; settings: A-375, 72 h
# NCI-H522 [6] = assay: Cytotoxicity against human NCI-H522 cells assessed as reduction in cell viability after 72 hrs by MTT assay; type: functional, cell-based; settings: NCI-H522, 72 h
# A-375 [7] = assay: Antitumor activity against human A375 cells xenografted in nude Ncr mouse assessed as reduction in tumor growth at 50 mg/kg, ig dosed once daily for 23 days; type: functional; settings: A-375, po, 552 h, route intragastric, read-out: TGI
# [8] = target: Serine/threonine-protein kinase B-raf (Homo sapiens, UniProt P15056); assay: Inhibition of BRAF (unknown origin) incubated for 15 mins by fluorescence based assay
# Sequence of Serine/threonine-protein kinase B-raf (P15056 whole entry): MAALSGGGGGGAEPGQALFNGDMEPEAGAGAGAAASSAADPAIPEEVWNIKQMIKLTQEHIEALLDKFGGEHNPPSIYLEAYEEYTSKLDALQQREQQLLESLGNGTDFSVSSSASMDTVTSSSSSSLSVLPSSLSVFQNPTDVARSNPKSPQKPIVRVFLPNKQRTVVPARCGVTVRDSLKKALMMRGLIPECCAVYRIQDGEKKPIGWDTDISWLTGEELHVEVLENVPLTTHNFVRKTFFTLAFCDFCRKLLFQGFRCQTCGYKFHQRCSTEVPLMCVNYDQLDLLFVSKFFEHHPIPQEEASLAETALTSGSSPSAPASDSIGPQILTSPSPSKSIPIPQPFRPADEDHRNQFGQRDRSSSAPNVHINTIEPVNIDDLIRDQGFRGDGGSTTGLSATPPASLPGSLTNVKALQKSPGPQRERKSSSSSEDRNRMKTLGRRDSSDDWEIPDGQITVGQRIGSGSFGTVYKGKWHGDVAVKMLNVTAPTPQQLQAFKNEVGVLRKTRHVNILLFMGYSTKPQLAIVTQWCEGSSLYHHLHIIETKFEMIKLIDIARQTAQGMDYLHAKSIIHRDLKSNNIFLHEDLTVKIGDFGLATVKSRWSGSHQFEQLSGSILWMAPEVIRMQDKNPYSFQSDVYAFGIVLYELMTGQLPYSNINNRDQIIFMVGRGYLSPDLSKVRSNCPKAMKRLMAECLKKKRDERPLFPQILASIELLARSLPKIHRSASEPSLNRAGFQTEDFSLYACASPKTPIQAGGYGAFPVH
Structure (SMILES),inhibition of growth at 10 µM (HepG2 [1]) [%],inhibition of growth at 10 µM (MDA-MB-453) [%],inhibition of growth at 10 µM (SW480) [%],inhibition of growth at 10 µM (A-375 [2]) [%],inhibition of growth at 10 µM (NCI-H522 [3]) [%],inhibition of growth at 10 µM (MCF7) [%],IC50 (HepG2 [4]) [µM],IC50 (A-375 [5]) [µM],IC50 (NCI-H522 [6]) [µM],inhibition in vivo at 50 mg/kg (A-375 [7]) [%],IC50 [8] [µM]
O=C(Nc1ccc(Cl)c(Cl)c1)c1ccc(Cl)c(C(=O)Nc2ccc(-c3ncc[nH]3)nc2)c1,57,36.3,13.4,28.4,-28.6,25,3.97,,,,
O=C(Nc1ccc(Cl)c(C(=O)Nc2ccc(-c3ncc[nH]3)nc2)c1)c1ccc(C(F)(F)F)cc1,44,48.4,15.1,47.6,-22.9,35.3,,,,,
Cc1ccc(NC(=O)c2ccc(Cl)c(Cl)c2)cc1C(=O)Nc1ccc(-c2ncc[nH]2)nc1,5.5,24.4,13.7,30.6,2,33,,,,,
Cc1ccc(NC(=O)c2cccc(Br)c2)cc1C(=O)Nc1ccc(-c2ncc[nH]2)nc1,6.4,20.2,24.4,31.9,10.4,33.2,,,,,
CNC(=O)c1cc(Oc2ccc(NC(=O)Nc3ccc(Cl)c(C(F)(F)F)c3)cc2)ccn1 [SORAFENIB],59.9,36.9,28.1,44.1,39.4,23,5.74,16.2,19.3,76.6,
Cc1ccc(C(=O)Nc2ccc(C)c(C(=O)Nc3ccc(-c4ncc[nH]4)nc3)c2)cc1,17.8,16.5,26.3,37.6,31.8,36.5,,,,,
Cc1ccc(C(=O)Nc2ccc(Cl)c(C(=O)Nc3ccc(-c4ncc[nH]4)nc3)c2)cc1,-2.7,23.2,21.1,30.1,17.2,22.4,,,,,
O=C(Nc1ccc(Cl)c(C(=O)Nc2ccc(-c3ncc[nH]3)nc2)c1)c1cccc(F)c1,-12.9,19,16.7,32.3,7.6,29.7,,,,,
Cc1ccc(NC(=O)c2cccc([N+](=O)[O-])c2)cc1C(=O)Nc1ccc(-c2ncc[nH]2)nc1,11.1,22.3,16.7,17.6,8.9,34.9,,,,,
O=C(Nc1ccc(Cl)c(C(=O)Nc2ccc(-c3ncc[nH]3)nc2)c1)c1ccc(Cl)cc1,38.9,36.4,13.4,29.6,-1.9,31.4,,,,,
O=C(Nc1ccc(Cl)cc1)c1ccc(Cl)c(C(=O)Nc2ccc(-c3ncc[nH]3)nc2)c1,18.9,16.5,12.7,21.9,-20,19.4,,,,,
COc1cccc(C(=O)Nc2ccc(C)c(C(=O)Nc3ccc(-c4ncc[nH]4)nc3)c2)c1,-4.9,18,17.6,28.2,8.7,27.9,,,,,2.47
O=C(Nc1ccc(Cl)c(C(=O)Nc2ccc(-c3ncc[nH]3)nc2)c1)c1cccc(C(F)(F)F)c1,39.5,46.1,26.9,44.5,-27.4,39,,,,,
Cc1ccc(NC(=O)c2ccc(C(F)(F)F)cc2)cc1C(=O)Nc1ccc(-c2ncc[nH]2)nc1,25.7,26,28.1,40.4,16.5,36.4,,,,,
Cc1ccc(NC(=O)c2ccc(Cl)c(C(F)(F)F)c2)cc1C(=O)Nc1ccc(-c2ncc[nH]2)nc1,47.9,12.5,16.7,42.9,-11.4,30.5,6.17,14.4,,,
